Tests used:
KHOS-240S [1] = assay: relative viability vs DMSO control (72 h) (fraction); higher = more viable cells
Method in brief: (§1)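 Percent growth from ATPLite readings, averaged over up to triplicate wells, was used as relative viability. Sarcoma cell lines were seeded into 384-well plates for 80–90% confluence, dosed after 24 h, and kept 72 h at 37 °C, 5% CO2. Data were rescaled to a range where 1 is full and 0 is none.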

MES-SA [2] = assay: as above
Method in brief: as §1

RD [3] = assay: as above
Method in brief: as §1

SW1353 [4] = assay: as above
Method in brief: as §1

SYO-1 [5] = assay: as above
Method in brief: as §1

A204 = assay: standardised AUC of viability dose-response curve (72 h) (fraction (0-1)); higher = less growth inhibition (more resistant)
Method in brief: (§2)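 Viability of sarcoma cell lines was read with ATPLite after 72 h of triplicate treatment in 384-well plates with 2.5 µl of compound from a compound-plate series of 10 mM to 0.0002 mM. Viability was scaled 1 (full) to 0 (none) and fitted with a four-parameter log-logistic model for each drug and cell line. The reported standardised area under the dose-response curve in log-dose space comes from a modified drexplorer computeAUC, where 1 is no response and 0 is full response.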

G401 = assay: as above
Method in brief: as §2

HS729 = assay: as above
Method in brief: as §2

HT1080 = assay: as above
Method in brief: as §2

KHOS-240S [6] = assay: as above
Method in brief: as §2

KHOS-NP = assay: as above
Method in brief: as §2

MES-SA [7] = assay: as above
Method in brief: as §2

RD-ES = assay: as above
Method in brief: as §2

RD [8] = assay: as above
Method in brief: as §2

SK-ES-1 = assay: as above
Method in brief: as §2

SK-LMS-1 = assay: as above
Method in brief: as §2

SW1353 [9] = assay: as above
Method in brief: as §2

SW684 = assay: as above
Method in brief: as §2

SW872 = assay: as above
Method in brief: as §2

SW982 = assay: as above
Method in brief: as §2

SYO-1 [10] = assay: as above
Method in brief: as §2

VA-ES-BJ = assay: as above
Method in brief: as §2

COc1cc2ncnc(Nc3cccc(Cl)c3F)c2cc1OC(=O)N1CCN(C)C[C@H]1C [AZD-3759]
relative viability
Settings	KHOS-240S [1]	MES-SA [2]	RD [3]	SW1353 [4]	SYO-1 [5]
0.00017 µM	1.04	0.938	1.04	1.02	1.03
0.00051 µM	1.06	0.921	1.1	1.02	0.995
0.00152 µM	1.06	0.953	1.1	1.04	0.987
0.00457 µM	1.06	0.917	1.1	0.998	0.977
0.01372 µM	1.05	0.94	1.11	0.964	0.951
0.04115 µM	1.04	0.929	1.09	0.983	0.947
0.1235 µM	1.05	0.921	1.09	0.979	0.891
0.3704 µM	1.04	0.891	1.12	0.868	0.896
1.111 µM	0.9537	0.902	1.08	0.877	0.851
3.333 µM	0.976	0.8425	1.06	0.8196	0.783
10 µM	0.878	0.777	0.97	0.769	0.614

Settings	standardised AUC
A204	0.958
G401	0.972
HS729	0.906
HT1080	0.975
KHOS-240S [6]	0.967
KHOS-NP	0.969
MES-SA [7]	0.974
RD [8]	0.991
RD-ES	0.992
SK-ES-1	0.972
SK-LMS-1	0.964
SW684	0.978
SW872	0.967
SW982	0.977
SW1353 [9]	0.922
SYO-1 [10]	0.91
VA-ES-BJ	0.955

COc1cc(OC)cc(N(CCNC(C)C)c2ccc3ncc(-c4cnn(C)c4)nc3c2)c1 [Erdafitinib]
relative viability
Settings	KHOS-240S [1]	MES-SA [2]	RD [3]	SW1353 [4]	SYO-1 [5]
0.00017 µM	1.06	0.911	1.05	1.07	0.933
0.00051 µM	1.05	0.9276	1.09	1.01	0.814
0.00152 µM	1.01	0.909	1.08	0.975	0.734
0.00457 µM	0.999	0.85	1.08	0.889	0.674
0.01372 µM	0.939	0.837	1.09	0.859	0.588
0.04115 µM	0.828	0.741	1.09	0.853	0.519
0.1235 µM	0.762	0.679	1.13	0.787	0.451
0.3704 µM	0.713	0.667	1.13	0.781	0.396
1.111 µM	0.643	0.616	1.11	0.745	0.342
3.333 µM	0.521	0.409	0.677	0.57	0.248
10 µM	0.19	0.148	0.269	0.0859	-0.0109

N#Cc1ccnc(N2C(=O)CC[C@H]2C(=O)N(c2cncc(F)c2)[C@H](C(=O)NC2CC(F)(F)C2)c2ccccc2Cl)c1 [Ivosidenib]
relative viability
Settings	KHOS-240S [1]	MES-SA [2]	RD [3]	SW1353 [4]	SYO-1 [5]
0.00017 µM	1.03	0.905	1.04	0.966	1.03
0.00051 µM	1.04	0.943	1.02	0.94	1.01
0.00152 µM	1.04	0.932	1.03	0.976	1.07
0.00457 µM	1.057	0.935	1.05	0.935	1.02
0.01372 µM	1.04	0.938	1.05	0.976	1.01
0.04115 µM	1.046	0.929	1.06	0.972	1.01
0.1235 µM	1.02	0.933	1.07	0.949	1.02
0.3704 µM	1.03	0.981	1.03	0.98	1.01
1.111 µM	1.02	0.976	1.04	0.929	1.02
3.333 µM	1.022	0.925	1.02	0.973	1.01
10 µM	0.998	0.8939	0.944	0.972	1

CCCCCCCCCCCCCCCCCCOP(=O)([O-])OC1CC[N+](C)(C)CC1 [Perifosine]
relative viability
Settings	KHOS-240S [1]	MES-SA [2]	RD [3]	SW1353 [4]	SYO-1 [5]
0.00017 µM	1.09	0.987	1.05	1.11	1.01
0.00051 µM	1.1	0.982	1.07	1.1	1.012
0.00152 µM	1.11	0.998	1.09	1.09	0.99
0.00457 µM	1.1	0.974	1.11	1.08	1.01
0.01372 µM	1.1	0.96	1.07	1.04	0.977
0.04115 µM	1.09	0.922	1.07	1.04	0.965
0.1235 µM	1.09	0.953	1.1	1.05	0.97
0.3704 µM	1.08	0.936	1.07	1.07	0.946
1.111 µM	1.09	0.855	1.08	1.03	0.941
3.333 µM	1.04	0.918	1.09	1.02	0.903
10 µM	0.818	0.781	0.997	1.06	0.901
